In PubChem BioAssay AID330 (DTP/NCI, 2004):
Where “and” joins values, the source holds several entries; their conditions need not be identical. Identical values can stand only once. Toxic doses and inconclusive results are not listed. How the source made its calls: active means survival T/C of 150% or more; inactive means T/C below 125% in these data.

Test system: P388 leukemia ip, CD2F1 mice, survival T/C
Experiment: NCI In Vivo Anticancer Drug Screen. Data for tumor model P388 Leukemia (intraperitoneal) in CD2F1 (CDF1) mice
Conditions: endpoint: median survival time, higher = longer survival
Summary of the method: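 Mice carrying the transplanted tumor received test compound or vehicle. Survival was recorded in each group, and the value is the treated-group measurement divided by that of the vehicle-treated control group.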

[1] = dose: 25.0 mg/kg/injection, schedule: Q01DX005 (ip), vehicle: Klucel (hydroxypropylcellulose) (HPC)
[2] = dose: 50.0 mg/kg/injection, schedule: Q01DX005 (ip), vehicle: Klucel (hydroxypropylcellulose) (HPC)
[3] = dose: 200.0 mg/kg/injection, schedule: Q01DX005 (ip), vehicle: Klucel (hydroxypropylcellulose) (HPC)
[4] = dose: 50.0 mg/kg/injection, schedule: Q01DX005 (ip), vehicle: saline with Tween-80
[5] = dose: 100.0 mg/kg/injection, schedule: Q01DX005 (ip), vehicle: saline with Tween-80
[6] = dose: 200.0 mg/kg/injection, schedule: Q01DX005 (ip), vehicle: saline with Tween-80
[7] = dose: 60.0 mg/kg/injection, schedule: Q01DX005 (ip), vehicle: saline with Tween-80

Measured: T/C

NCCSSc1ccccc1[N+](=O)[O-]
inactive: dose: 12.5 mg/kg/injection, schedule: Q01DX005 (ip), vehicle: Klucel (hydroxypropylcellulose) (HPC) 98 % of control | [1] 94 % of control | [2] 98 % of control and 90 % of control

CCN(C)N=Nc1ccc(C(N)=O)cc1
inactive: [1] 101 % of control and 105 % of control | [2] 95 % of control | [3] 89 % of control

O=C(NNC(=O)C12CC3CC(CC(C3)C1)C2)C12CC3CC(CC(C3)C1)C2
inactive: [1] 105 % of control | [2] 102 % of control | dose: 100.0 mg/kg/injection, schedule: Q01DX005 (ip), vehicle: Klucel (hydroxypropylcellulose) (HPC) 105 % of control | [3] 105 % of control

COC(=O)Cn1ccnc1[N+](=O)[O-]
inactive: dose: 12.5 mg/kg/injection, schedule: Q01DX009 (ip), vehicle: distilled water + Tween-80 100 % of control | dose: 25.0 mg/kg/injection, schedule: Q01DX009 (ip), vehicle: distilled water + Tween-80 93 % of control | dose: 50.0 mg/kg/injection, schedule: Q01DX009 (ip), vehicle: distilled water + Tween-80 93 % of control | dose: 100.0 mg/kg/injection, schedule: Q01DX009 (ip), vehicle: distilled water + Tween-80 93 % of control | dose: 200.0 mg/kg/injection, schedule: Q01DX009 (ip), vehicle: distilled water + Tween-80 90 % of control

Cc1ccc(N)c(C(=O)Nc2ccc(Cl)cc2)c1
inactive: [4] 104 % of control | [5] 91 % of control | [6] 92 % of control

C=CC(=O)C(C(=O)OCC)=P(c1ccccc1)(c1ccccc1)c1ccccc1
inactive: dose: 60.0 mg/kg/injection, schedule: Q01DX005 (ip), vehicle: Klucel (hydroxypropylcellulose) (HPC) 98 % of control | dose: 120.0 mg/kg/injection, schedule: Q01DX005 (ip), vehicle: Klucel (hydroxypropylcellulose) (HPC) 97 % of control | dose: 240.0 mg/kg/injection, schedule: Q01DX005 (ip), vehicle: Klucel (hydroxypropylcellulose) (HPC) 101 % of control

O=C1COCC(=O)OCCOCCOCCO1
inactive: dose: 100.0 mg/kg/injection, schedule: Q04DX003 (ip), vehicle: Klucel (hydroxypropylcellulose) (HPC) 100 % of control | dose: 200.0 mg/kg/injection, schedule: Q04DX003 (ip), vehicle: Klucel (hydroxypropylcellulose) (HPC) 100 % of control | dose: 400.0 mg/kg/injection, schedule: Q04DX003 (ip), vehicle: Klucel (hydroxypropylcellulose) (HPC) 100 % of control

COc1ccc(-c2nccc3cc(OC)c(OC)cc23)cc1OC
inactive: dose: 6.25 mg/kg/injection, schedule: Q01DX009 (ip), vehicle: water 100 % of control | dose: 12.5 mg/kg/injection, schedule: Q01DX009 (ip), vehicle: water 103 % of control | dose: 25.0 mg/kg/injection, schedule: Q01DX009 (ip), vehicle: water 106 % of control | dose: 50.0 mg/kg/injection, schedule: Q01DX009 (ip), vehicle: water 118 % of control

CN(C)c1ccc(-c2nn(C)c3nc(=O)n(C)c(=O)c-3[n+]2[O-])cc1
inactive: dose: 1.56 mg/kg/injection, schedule: Q01DX001 (ip), vehicle: saline 101 % of control | dose: 3.12 mg/kg/injection, schedule: Q01DX001 (ip), vehicle: saline 103 % of control | dose: 6.25 mg/kg/injection, schedule: Q01DX001 (ip), vehicle: saline 100 % of control and 103 % of control

CC(=O)Nc1ncc(Sc2ccc([N+](=O)[O-])cc2)s1
inactive: dose: 1.56 mg/kg/injection, schedule: Q04DX003 (ip), vehicle: saline 100 % of control | dose: 3.13 mg/kg/injection, schedule: Q04DX003 (ip), vehicle: saline 99 % of control | dose: 6.25 mg/kg/injection, schedule: Q04DX003 (ip), vehicle: saline 98 % of control | dose: 12.5 mg/kg/injection, schedule: Q04DX003 (ip), vehicle: saline 97 % of control

c1ccc(-c2c3ccccc3c(-c3ccccc3)c3c(-c4ccccc4)c4ccccc4c(-c4ccccc4)c23)cc1
inactive: dose: 15.0 mg/kg/injection, schedule: Q01DX005 (ip), vehicle: saline with Tween-80 105 % of control | dose: 30.0 mg/kg/injection, schedule: Q01DX005 (ip), vehicle: saline with Tween-80 106 % of control | [7] 91 % of control and 94 % of control

Oc1ccc(O)c(/C=N/NC(=S)NC2CC3CC2C2C=CCC32)c1 (stereo not given)
inactive: dose: 12.5 mg/kg/injection, schedule: Q01DX009 (ip), vehicle: olive oil, sesame oil, peanut oil 90 % of control | dose: 25.0 mg/kg/injection, schedule: Q01DX009 (ip), vehicle: olive oil, sesame oil, peanut oil 102 % of control | dose: 50.0 mg/kg/injection, schedule: Q01DX009 (ip), vehicle: olive oil, sesame oil, peanut oil 102 % of control | dose: 100.0 mg/kg/injection, schedule: Q01DX009 (ip), vehicle: olive oil, sesame oil, peanut oil 98 % of control | dose: 200.0 mg/kg/injection, schedule: Q01DX009 (ip), vehicle: olive oil, sesame oil, peanut oil 105 % of control

Cc1ccc2c(c1)Nc1c(ccc3ccccc13)S2
inactive: [4] 105 % of control | [5] 105 % of control | [6] 103 % of control

CCN(CC)CCNC(c1ccc(OC)cc1)C(Cl)(Cl)Cl (stereo not given)
inactive: dose: 60.0 mg/kg/injection, schedule: Q01DX005 (ip), vehicle: saline 94 % of control | dose: 120.0 mg/kg/injection, schedule: Q01DX005 (ip), vehicle: saline 94 % of control

CC(=S)NC(=O)NC(=O)c1ccc(C)cc1
inactive: dose: 100.0 mg/kg/injection, schedule: Q01DX001 (ip), vehicle: saline 102 % of control and 104 % of control | dose: 200.0 mg/kg/injection, schedule: Q01DX001 (ip), vehicle: saline 112 % of control and 96 % of control | dose: 400.0 mg/kg/injection, schedule: Q01DX001 (ip), vehicle: saline 112 % of control and 97 % of control

Cc1ccc(S(=O)(=O)CC(=O)CC(=O)C(=O)Nc2ccc(Cl)cc2Cl)cc1
inactive: [7] 100 % of control | dose: 120.0 mg/kg/injection, schedule: Q01DX005 (ip), vehicle: saline with Tween-80 100 % of control | dose: 240.0 mg/kg/injection, schedule: Q01DX005 (ip), vehicle: saline with Tween-80 100 % of control

FC(F)(F)C(Cl)Br (stereo not given)
inactive: dose: 25.0 mg/kg/injection, schedule: Q04DX003 (ip), vehicle: saline 109 % of control | dose: 50.0 mg/kg/injection, schedule: Q04DX003 (ip), vehicle: saline 109 % of control | dose: 100.0 mg/kg/injection, schedule: Q01DX009 (ip), vehicle: saline 100 % of control | dose: 100.0 mg/kg/injection, schedule: Q04DX003 (ip), vehicle: saline 109 % of control | dose: 200.0 mg/kg/injection, schedule: Q01DX009 (ip), vehicle: saline 90 % of control | dose: 400.0 mg/kg/injection, schedule: Q01DX009 (ip), vehicle: saline 90 % of control

CC1(C)OP2(O)(OC(C)(C)c3ccccc32)c2ccccc21
inactive: dose: 50.0 mg/kg/injection, schedule: Q01DX009 (ip), vehicle: Klucel (hydroxypropylcellulose) (HPC) 99 % of control | dose: 100.0 mg/kg/injection, schedule: Q01DX009 (ip), vehicle: Klucel (hydroxypropylcellulose) (HPC) 102 % of control | dose: 200.0 mg/kg/injection, schedule: Q01DX009 (ip), vehicle: Klucel (hydroxypropylcellulose) (HPC) 104 % of control

CC[N+](C)(CC)CCNc1cc2c(c3c(=O)c4ccccc4sc13)CCCC2
inactive: dose: 25.0 mg/kg/injection, schedule: Q01DX005 (ip), vehicle: distilled water + Tween-80 119 % of control | dose: 50.0 mg/kg/injection, schedule: Q01DX005 (ip), vehicle: distilled water + Tween-80 106 % of control | dose: 100.0 mg/kg/injection, schedule: Q01DX005 (ip), vehicle: distilled water + Tween-80 101 % of control

NC(=S)Nc1ccc(Cc2ccc(NC(N)=S)cc2)cc1
inactive: dose: 25.0 mg/kg/injection, schedule: Q04DX003 (ip), vehicle: saline with Tween-80 101 % of control | dose: 50.0 mg/kg/injection, schedule: Q04DX003 (ip), vehicle: saline with Tween-80 101 % of control | dose: 100.0 mg/kg/injection, schedule: Q04DX003 (ip), vehicle: saline with Tween-80 100 % of control | dose: 200.0 mg/kg/injection, schedule: Q04DX003 (ip), vehicle: saline with Tween-80 99 % of control
